Reference: US4501699A, “Maggiemycin, anhydromaggiemycin and processes for making” (Litton Bionetics, Inc., priority 1982, dated 1985)
≈ marks a conversion by molar mass, not a printed value.

Assays:
[1] = test system: murine tumor cell lines KB, L1210 and P388; assay: In vitro activity against one or all of the murine tumor cell lines KB, L1210 and P388; assay type: cell-based; details: for in vitro antitumor activity: one or all of KB, L1210 and P388
Excerpt: (§1) A suitable solvent system was developed for the isolation of pure compounds of the invention by using the following systems in TLC. (A) chloroform (100%), (B) chloroform-ethyl acetate (80:20), (C) chloroform-acetone (80:20), (D) chloroform-methanol (80:20), (E) chloroform-acetic acid (95:5), (F) chloroform-acetone-acetic acid (90:8:2), (G) chloroform-hexane-acetic acid (50:50:5), (H) ether-petroleum ether (1:1), (I) chloroform-benzene methanol (6:3:1), (J) chloroform-benzene-methanol (7:3:2), (K) benzene-ethylacetate-methanol-formic acid-water (5:5:1.5:1:0.3), (L) chloroform-hexane-methanol (5:5:1) and (M) chloroform-heptane-methanol-acetic acid (40:40:18:2). In some of the solvents the order of elution changed. […] The crude compound was therefore chromatographed on a TLC grade silica gel column eluting with chloroform (100%), chlorform-acetic acid (99:1), chloroform-acetic acid (98:2), and chloroform-acetic acid (95:5). Based on the TLC, various fractions were combined to produce a red and purple eluate. These were separately concentrated and precipitated with chloroform-petroleum ether to yield red and purple powder. The red powder has been designated as maggiemycin (NSC-D344012) and the purple powder as anhydromaggiemycin. Both these compounds were active against Bacillus subtilis and Straphylococcus aureus. The in vitro antitumor activity of maggiemycin and anhydromaggiemycin against KB, P388 and L1210 murine cell lines is shown in Table 1.
The biological activity of these newly isolated anthracyclinones was compared with some of the known anthracyclinones. Each compounds was tested for in vitro activity against one or all of the murine tumor cell lines KB, L1210 and P388.

Straphylococcus aureus = assay: Antibacterial activity against Straphylococcus aureus; assay type: cell-based
L1210 = assay: In vitro cytotoxicity (growth inhibition) against L1210; assay type: cell-based, murine; details: Mus musculus, dose level at which 50% inhibition of growth in vitro is noted vs. untreated controls, read-out: ED50 L1210
Excerpt: as §1, with “The in vitro antitumor activity of maggiemycin and anhydromaggiemycin against KB, P388 and L1210 murine cell lines is shown in Table 1.” left out

Bacillus subtilis = assay: Antibacterial activity against Bacillus subtilis; assay type: cell-based
P388 = assay: In vitro cytotoxicity (growth inhibition) against P388; assay type: cell-based, murine; details: Mus musculus, dose level at which 50% inhibition of growth in vitro is noted vs. untreated controls, read-out: ED50 P388
Excerpt: as §1, with “The in vitro antitumor activity of maggiemycin and anhydromaggiemycin against KB, P388 and L1210 murine cell lines is shown in Table 1.” left out

KB = assay: In vitro cytotoxicity (growth inhibition) against KB; assay type: cell-based, murine; details: Homo sapiens, dose level at which 50% inhibition of growth in vitro is noted vs. untreated controls, read-out: ED50 KB
Excerpt: as §1, with “The in vitro antitumor activity of maggiemycin and anhydromaggiemycin against KB, P388 and L1210 murine cell lines is shown in Table 1.” left out

| SMILES | in vitro antitumor activity [1] | activity against Straphylococcus aureus (Straphylococcus aureus) | IC50 (L1210) [µg/mL] | activity against Bacillus subtilis (Bacillus subtilis) | IC50 (P388) [µg/mL] | IC50 (KB) [µg/mL] | in vitro antitumor activity, comparison of anhydromaggiemycin with maggiemycin ([1]; relative to maggiemycin) |
| --- | --- | --- | --- | --- | --- | --- | --- |
| COc1cccc2c1C(=O)c1c(O)c3c(c(O)c1C2=O)C[C@@](O)(C(C)=O)C[C@@H]3O [daunorubicinone, Daunorubicinone, reference compound] | inactive | – | – | – | – | – | – |
| CC[C@@]1(O)CC(=O)c2c(O)c3c(c(O)c2[C@H]1C(=O)OC)C(=O)c1cccc(O)c1C3=O [Maggiemycin] | active | active | 5.2 (≈ 12.2 µM) | active | 4.4 (≈ 10.3 µM) | 2.7 (≈ 6.33 µM) | – |
| COc1cccc2c1C(=O)c1c(O)c3c(c(O)c1C2=O)C[C@@](O)(C(C)=O)CC3=O [7-oxidodaunorubicinone] | active | – | – | – | – | – | – |
| CCc1cc(O)c2c(O)c3c(c(O)c2c1C(=O)OC)C(=O)c1cccc(O)c1C3=O [Anhydromaggiemycin] | active | active | 0.26 (≈ 0.637 µM) | active | 0.62 (≈ 1.52 µM) | 0.51 (≈ 1.25 µM) | more active than maggiemycin |
| CC[C@@]1(O)C[C@H](O)c2c(O)c3c(c(O)c2[C@H]1C(=O)OC)C(=O)c1cccc(O)c1C3=O [ε-rhodomycinone, ε-Rhodomycinone, reference compound] | inactive | – | – | – | – | – | – |
| COc1cccc2c1C(=O)c1c(c(O)c3cc(C(C)=O)cc(O)c3c1O)C2=O [anhydro-7-oxidodaunorubicinone, Anhydro-7-oxidodaunorubicinone] | inactive | – | – | – | – | – | – |
